{
  "source": "patent US20230085307A1",
  "about": "“PYRIDAZINONE COMPOUND AND HERBICIDE” (NISSAN CHEMICAL CORPORATION, priority 2019, published 2023)",
  "key": {"[1]": {"system": "green foxtail", "assay": "Test Example 5: herbicidal effect by foliage application, plastic box (Table 20, symbol G)", "format": "in vivo, green foxtail (Setaria viridis)", "conditions": "foliage application", "how_it_was_run": "(§1)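 Post-emergence foliar test in sterilized diluvial soil. Compound applied as water-diluted emulsion at a predetermined rate to 14-day-old plants; evaluation at three weeks.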"}, "[2]": {"system": "windgrass", "assay": "Test Example 5: herbicidal effect by foliage application, plastic box (Table 20, symbol L)", "format": "in vivo, windgrass (Apera spica-venti)", "conditions": "foliage application", "how_it_was_run": "as §1"}, "[3]": {"system": "lambsquarters", "assay": "Test Example 5: herbicidal effect by foliage application, plastic box (Table 20, symbol O)", "format": "in vivo, lambsquarters (Chenopodium album)", "conditions": "foliage application", "how_it_was_run": "as §1"}, "[4]": {"system": "wild oat", "assay": "Test Example 5: herbicidal effect by foliage application, plastic box (Table 20, symbol I)", "format": "in vivo, wild oat (Avena fatua)", "conditions": "foliage application", "how_it_was_run": "as §1"}, "[5]": {"system": "barnyard grass", "assay": "Test Example 5: herbicidal effect by foliage application, plastic box (Table 20, symbol H)", "format": "in vivo, barnyard grass (Echinochloa crus-galli)", "conditions": "foliage application", "how_it_was_run": "as §1"}, "[6]": {"system": "persian speedwell", "assay": "Test Example 5: herbicidal effect by foliage application, plastic box (Table 20, symbol R)", "format": "in vivo, Persian speedwell (Veronica persica)", "conditions": "foliage application, 320 g/ha, three weeks after application", "how_it_was_run": "as §1"}, "[7]": {"system": "southern crabgrass", "assay": "Test Example 5: herbicidal effect by foliage application, plastic box (Table 20, symbol F)", "format": "in vivo, southern crabgrass (Digitaria ciliaris)", "conditions": "foliage application", "how_it_was_run": "as §1"}, "[8]": {"system": "velvetleaf", "assay": "Test Example 5: herbicidal effect by foliage application, plastic box (Table 20, symbol M)", "format": "in vivo, velvetleaf (Abutilon theophrasti)", "conditions": "foliage application", "how_it_was_run": "as §1"}, "[9]": {"system": "chickweed", "assay": "Test Example 5: herbicidal effect by foliage application, plastic box (Table 20, symbol P)", "format": "in vivo, common chickweed (Stellaria media)", "conditions": "foliage application", "excerpt": "[Test Example 5] Herbicidal Effect Test by Foliage Application\nSterilized diluvial soil was placed in a plastic box having a length of 21 cm, a width of 13 cm, and a depth of 7 cm. The seeds of each of southern crabgrass, green foxtail, barnyard grass, wild oat, blackgrass, Italian ryegrass, windgrass, velvetleaf, redroot pigweed, lambsquarters, chickweed, false cleavers, persian speedwell, corn, soybean, rice, wheat, beet, and rapeseed were sowed in a spot-like manner and covered with the soil having a thickness of about 1.5 cm. Thereafter, the plants were grown in a greenhouse at 25° C. to 30° C. After 14-day growth of the plants, the emulsion agent of the compound of the present invention prepared according to Formulation Example 2 was diluted with water so as to achieve a predetermined herbicide amount, and the diluted emulsion agent was uniformly applied to a foliage part with a small-sized spray. Three weeks after the herbicide application, the effect of the herbicide on each plant was evaluated according to the criteria of Test Example 1."}, "[10]": {"system": "redroot pigweed", "assay": "Test Example 5: herbicidal effect by foliage application, plastic box (Table 20, symbol N)", "format": "in vivo, redroot pigweed (Amaranthus retroflexus)", "conditions": "foliage application", "how_it_was_run": "as §1"}, "[11]": {"system": "blackgrass", "assay": "Test Example 5: herbicidal effect by foliage application, plastic box (Table 20, symbol J)", "format": "in vivo, blackgrass (Alopecurus myosuroides)", "conditions": "foliage application", "how_it_was_run": "as §1"}, "[12]": {"system": "Italian ryegrass", "assay": "Test Example 5: herbicidal effect by foliage application, plastic box (Table 20, symbol K)", "format": "in vivo, Italian ryegrass (Lolium multiflorum)", "conditions": "foliage application", "how_it_was_run": "as §1"}, "[13]": {"system": "Chinese sprangletop", "assay": "Test Example 3: herbicidal effect by foliage application, Wagner pot (Table 18, symbol D)", "format": "in vivo, chinese sprangletop (Leptochloa chinensis)", "conditions": "amount of applied herbicide 320 g/ha", "how_it_was_run": "(§2)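 Plants were sown in alluvial soil held under 0.1–0.5 cm standing water and grown 14 days in a greenhouse at 25–30 °C. An emulsifiable formulation, water-diluted to the set dose, was then sprayed onto the foliage, and effects were scored three weeks later using previously defined criteria.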"}, "[14]": {"system": "rice flat sedge", "assay": "Test Example 3: herbicidal effect by foliage application, Wagner pot (Table 18, symbol E)", "format": "in vivo, rice flat sedge (Cyperus iria)", "conditions": "amount of applied herbicide 320 g/ha", "how_it_was_run": "as §2"}, "[15]": {"system": "barnyard grass", "assay": "Test Example 3: herbicidal effect by foliage application, Wagner pot (Table 18, symbol H)", "format": "in vivo, barnyard grass (Echinochloa crus-galli)", "conditions": "amount of applied herbicide 320 g/ha", "how_it_was_run": "as §2"}, "[16]": {"conditions": "320 g/ha, three weeks after application"}, "[17]": {"conditions": "AAH 320 g/ha, evaluated three weeks after application"}},
  "data": [
    {"smiles": "COc1ccc(-c2sc3ccccc3c2-c2c(O)c(C)nn(C)c2=O)c(OC)n1", "note": "[1-079]", "values": [
      {"measurement": "herbicidal effect grade, G: green foxtail", "setting": "[1]; [16]", "value": "0 (Herbicidal rate of 5% or less (almost no effect))"},
      {"measurement": "herbicidal effect grade, L: windgrass", "setting": "[2]; [16]", "value": "0 (Herbicidal rate of 5% or less (almost no effect))"},
      {"measurement": "herbicidal effect grade, O: lambsquarters", "setting": "[3]; [16]", "value": "0 (Herbicidal rate of 5% or less (almost no effect))"},
      {"measurement": "herbicidal effect grade, I: wild oat", "setting": "[4]; [16]", "value": "0 (Herbicidal rate of 5% or less (almost no effect))"},
      {"measurement": "herbicidal effect grade, H: barnyard grass", "setting": "[5]; [16]", "value": "0 (Herbicidal rate of 5% or less (almost no effect))"},
      {"measurement": "herbicidal effect grade, R: persian speedwell", "setting": "[6]", "value": "0 (Herbicidal rate of 5% or less (almost no effect))"},
      {"measurement": "herbicidal effect grade, F: southern crabgrass", "setting": "[7]; [16]", "value": "0 (Herbicidal rate of 5% or less (almost no effect))"},
      {"measurement": "herbicidal effect grade, M: velvetleaf", "setting": "[8]; [16]", "value": "0 (Herbicidal rate of 5% or less (almost no effect))"},
      {"measurement": "herbicidal effect grade, P: chickweed", "setting": "[9]; [16]", "value": "1 (Herbicidal rate of 5% or more and less than 20%)"},
      {"measurement": "herbicidal effect grade, N: redroot pigweed", "setting": "[10]; [16]", "value": "0 (Herbicidal rate of 5% or less (almost no effect))"},
      {"measurement": "herbicidal effect grade, J: blackgrass", "setting": "[11]; [16]", "value": "0 (Herbicidal rate of 5% or less (almost no effect))"},
      {"measurement": "herbicidal effect grade, K: Italian ryegrass", "setting": "[12]; [16]", "value": "0 (Herbicidal rate of 5% or less (almost no effect))"}
    ]},
    {"smiles": "COC(=O)COc1c(C)nn(C)c(=O)c1-c1c(-c2ccc(OC(F)F)cc2)sc2ccc(F)cc12", "note": "[2-306]", "values": [
      {"measurement": "G: green foxtail, herbicidal effect (criteria 0-5)", "setting": "[1]; [17]", "value": "0 (Herbicidal rate of 5% or less (almost no effect))"},
      {"measurement": "L: windgrass, herbicidal effect (criteria 0-5)", "setting": "[2]; [17]", "value": "0 (Herbicidal rate of 5% or less (almost no effect))"},
      {"measurement": "O: lambsquarters, herbicidal effect (criteria 0-5)", "setting": "[3]; [17]", "value": "2 (Herbicidal rate of 20% or more and less than 40%)"},
      {"measurement": "I: wild oat, herbicidal effect (criteria 0-5)", "setting": "[4]; [17]", "value": "0 (Herbicidal rate of 5% or less (almost no effect))"},
      {"measurement": "H: barnyard grass, herbicidal effect (criteria 0-5)", "setting": "[5]; [17]", "value": "0 (Herbicidal rate of 5% or less (almost no effect))"},
      {"measurement": "F: southern crabgrass, herbicidal effect (criteria 0-5)", "setting": "[7]; [17]", "value": "0 (Herbicidal rate of 5% or less (almost no effect))"},
      {"measurement": "herbicidal effect on D: Chinese sprangletop", "setting": "[13]", "value": "3 (Herbicidal rate of 40% or more and less than 70%)"},
      {"measurement": "M: velvetleaf, herbicidal effect (criteria 0-5)", "setting": "[8]; [17]", "value": "0 (Herbicidal rate of 5% or less (almost no effect))"},
      {"measurement": "P: chickweed, herbicidal effect (criteria 0-5)", "setting": "[9]; [17]", "value": "5 (Herbicidal rate of 90% or more (almost completely withered))"},
      {"measurement": "herbicidal effect on E: rice flat sedge", "setting": "[14]", "value": "3 (Herbicidal rate of 40% or more and less than 70%)"},
      {"measurement": "N: redroot pigweed, herbicidal effect (criteria 0-5)", "setting": "[10]; [17]", "value": "0 (Herbicidal rate of 5% or less (almost no effect))"},
      {"measurement": "J: blackgrass, herbicidal effect (criteria 0-5)", "setting": "[11]; [17]", "value": "0 (Herbicidal rate of 5% or less (almost no effect))"},
      {"measurement": "K: Italian ryegrass, herbicidal effect (criteria 0-5)", "setting": "[12]; [17]", "value": "0 (Herbicidal rate of 5% or less (almost no effect))"},
      {"measurement": "herbicidal effect on H: barnyard grass", "setting": "[15]", "value": "3 (Herbicidal rate of 40% or more and less than 70%)"}
    ]}
  ]
}
